US12134620B2 (ARAXES PHARMA LLC, priority 2018, dated 2024)

Target: T1, KRAS G12C 1-169, his-tagged protein, GDP-loaded (Homo sapiens, UniProt P01116, G12C)
T1 construct: KRAS G12C 1-169, his-tagged protein, GDP-loaded; His tag
Test: Biochemical assay: covalent modification of KRAS G12C, analysed by mass spectrometry (RapidFire/TOF or Q-Exactive)
Type: binding
Settings: Modification activity, modification percentage from MS peak intensities
Description: Test compounds are prepared as 10 mM stock solutions in DMSO (Fisher cat. #BP-231-100). KRAS G12C 1-169, his-tagged protein, GDP-loaded is diluted to 2 μM or 0.5 μM in buffer (20 mM Hepes, 150 mM NaCl, 1 mM MgCl2). Compounds are tested for activity as follows:
Compounds are diluted to 50× final test concentration in DMSO in 96-well storage plates. Compound stock solutions are vortexed before use and observed carefully for any sign of precipitation. Dilutions are as follow: • For 32 μM final compound concentration, compounds are diluted to 1600 μM (3 μL 10 mM compound stock+15.75 μL DMSO and mixed well by pipetting. • For 8 μM final compound concentration, compounds are diluted to 400 μM (2 μL 10 mM compound stock+48 μL DMSO) and mixed well by pipetting. 49 μL of the stock protein solution is added to each well of a 96-well PCR plate (Fisher cat #1423027). 1 μl of the diluted 50× compounds are added to appropriate wells in the PCR plate using 12-channel pipettor. Reactions are mixed carefully and thoroughly by pipetting up/down with a 200 μL multi-channel pipettor. The plate is sealed well with aluminum plate seal, and protein and compound are allowed to react for a desired amount of time. 5 μL of 2% formic acid (Fisher cat #A117) in de-ionized H2O is then added to each well followed by mixing with a pipette to quench the reaction. The plate is then resealed with aluminum seal and stored frozen on dry ice until analyzed as described below.
The above described assays are analyzed by mass spectrometry according to one of the following two procedures:
The MS instrument is set to positive polarity, 2 GHz resolution, and low mass (1700) mode and allowed to equilibrate for 30 minutes. The instrument is then calibrated, switched to acquisition mode and the appropriate method loaded.
After another 30 minute equilibration time, a blank batch (i.e., buffer) is run to ensure equipment is operating properly. The samples are thawed at 37° C. for 10 minutes, briefly centrifuged, and transfer to the bench top. Wells A1 and H12 are spiked with 1 μL 500 μM internal standard peptide, and the plates centrifuged at 2000×g for 5 minutes. The method is then run and masses of each individual well recorded.
The masses (for which integration data is desired) for each well are pasted into the platemap and exported from the analysis. Masses for the internal standards are exported as well. The data at 50 ppm is extracted for the +19 charge state, and identity of well A1 is assigned using the internal standard spike and integrated. Peak data is exported as a TOF list and the above steps are repeated individually, for the +20, +21, +22, +23, +24, and +25 charge states.
The masses and peak intensities of KRAS G12C protein species are measured using a Dionex RSLCnano system (Thermo Scientific) connected to a Q Exactive Plus mass spectrometer (Thermo Scientific).
20 μL of sample is each loaded onto a Aeris™ 3.6 μm WIDEPORE C4 200 Å, LC Column 50×2.1 mm column maintained at 40° C. at a flow rate of 600 μL/min with 80% Solvent A (0.1% formic acid in H2O) and 20% Solvent B (0.1% formic acid in acetonitrile). The liquid chromatography conditions are 20% solvent B for 1 minute, 20% to 60% solvent B for 1.5 minutes, 60% to 90% solvent for 0.5 minute, 90% solvent B for 0.2 minute, 90% to 20% solvent B for 0.2 minute, and then equilibrated for 1.6 minute before the following sample injection. The flow rate is maintained at 600 μL/min throughout the sample analysis.
The mass spectrometer is operated in profile mode at a resolution of 17500, 5 microscans, using 50 msec max injection time and an AGC target of 1×10^6, and a full mass range from 800-1850 m/z is recorded. The intact protein mode is applied for optimal ion transfer and maximum sensitivity. The ionization method is electrospray ionization, which used a spray voltage of 4 kV, sheath gas flow set to 50 AU, auxiliary gas flow set to 10 AU and sweep gas flow set to 1 AU. […]

| Compound | Binding % |
| --- | --- |
| C=CC(=O)N1CC2(CCN(c3nc(N4CCC(N5CCN(C)CC5)CC4)nc(-c4c(C)ccc5cnn(C)c45)c3C#N)C2)C1 [Compound I-160, 4-(2-acryloyl-2,6-diazaspiro[3.4]octan-6-yl)-6-(1,6-dimethyl-1H-indazol-7-yl)-2-(4-(4-methylpiperazin-1-yl)piperidin-1-yl)pyrimidine-5-carbonitrile] | ++ (++ indicates binding activity from 50 to 85%) |
| C=CC(=O)N1CC2(CCN(c3ncnc(-c4c(C)ccc5[nH]ncc45)c3CC(F)(F)F)C2)C1 [Compound I-259, 1-(6-(6-(5-methyl-1H-indazol-4-yl)-5-(2,2,2-trifluoroethyl)pyrimi-din-4-yl)-2,6-diazaspiro[3.4]octan-2-yl)prop-2-en-1-one] | + (+ indicates binding activity greater than 0% and up to 50%) |
| C=CC(=O)N1CC2(CCN(c3nc(N4CC5CN(C)CC5C4)nc(-c4c(C)ccc5[nH]ncc45)c3C#N)C2)C1 (stereo not shown) [Compound I-39, 4-(2-acryloyl-2,6-diazaspiro[3.4]octan-6-yl)-6-(5-methyl-1H-indazol-4-yl)-2-(5-methylhexahydropyr-rolo[3,4-c]pyrrol-2(1H)-yl)pyrimidine-5-carbonitrile] | + (+ indicates binding activity greater than 0% and up to 50%) |
| C=CC(=O)N1CC2(CCN(c3nc(OCCN4CCCC4)nc(-c4c(C)ccc5[nH]ncc45)c3C#N)C2)C1 [Compound I-12, 4-(2-acryloyl-2,6-diazaspiro[3.4]octan-6-yl)-6-(5-methyl-1H-indazol-4-yl)-2-(2-(pyrrolidin-1-yl)ethoxy)pyrimidine-5-carbonitrile] | ++ (++ indicates binding activity from 50 to 85%) |
| C=CC(=O)N1CC2(CCN(c3cnc(OCc4ccccc4)c(-c4c(C)ccc5cnn(C)c45)c3C#N)C2)C1 [Compound I-225, 5-(2-acryloyl-2,6-diazaspiro[3.4]octan-6-yl)-2-(benzyloxy)-3-(1,6-dimethyl-1H-indazol-7-yl)isonicotinonitrile] | ++ (++ indicates binding activity from 50 to 85%) |
| C=CC(=O)N1CC2(CCN(c3nc(N4CCOCC4)nc(-c4c(C)ccc5[nH]nc(C)c45)c3C#N)C2)C1 [Compound I-78, 4-(2-acryloyl-2,6-diazaspiro[3.4]octan-6-yl)-6-(3,5-dimethyl-1H-indazol-4-yl)-2-morpholinopyrimidine-5-carbonitrile] | +++ (+++ indicates binding activity greater than 85%) |
| C/C=C/C(=O)N1CC2(CCN(c3ncnc(-c4c(C)ccc5[nH]ncc45)c3C#N)C2)C1 [Compound I-266, (E)-4-(2-(but-2-enoyl)-2,6-diazaspiro[3.4]octan-6-yl)-6-(5-methyl-1 1H-indazol-4-yl)pyrimidine-5-carbonitrile] | + (+ indicates binding activity greater than 0% and up to 50%) |
| C=CC(=O)N1CC2(CCN(c3ncnc(-c4c(C)ccc5[nH]ncc45)c3F)C2)C1 [Compound I-239, 1-(6-(5-fluoro-6-(5-methyl-1H-indazol-4-yl)pyrimidin-4-yl)-2,6-diazaspiro[3.4]octan-2-yl)prop-2-en-1-one] | + (+ indicates binding activity greater than 0% and up to 50%) |
| C=CC(=O)N1CC2(CCN(c3nc(N4CCCC4=O)nc(-c4c(C)ccc5[nH]ncc45)c3C#N)C2)C1 [Compound I-23, 4-(2-acryloyl-2,6-diazaspiro[3.4]octan-6-yl)-6-(5-methyl-1H-indazol-4-yl)-2-(2-oxopyrrolidin-1-yl)pyrimidine-5-carbonitrile] | ++ (++ indicates binding activity from 50 to 85%) |
| C=CC(=O)N1CC2(CCN(c3cnc(Oc4ccccc4)c(-c4c(C)ccc5cnn(C)c45)c3C#N)C2)C1 [Compound I-215, 5-(2-acryloyl-2,6-diazaspiro[3.4]octan-6-yl)-3-(1,6-dimethyl-1H-indazol-7-yl)-2-phenoxyisonicotinoni-trile] | ++ (++ indicates binding activity from 50 to 85%) |
| C=CC(=O)N1CC2(CC(=O)N(c3ncnc(-c4c(C)ccc5[nH]ncc45)c3C#N)C2)C1 [Compound I-273, 4-(2-acryloyl-7-oxo-2,6-diazaspiro[3.4]octan-6-yl)-6-(5-methyl-1H-indazol-4-yl)pyrimidine-5-carbonitrile] | + (+ indicates binding activity greater than 0% and up to 50%) |
| C=CC(=O)N1CC2(CCN(c3nc(OC[C@@H]4CCCN4C)nc(-c4c(C)ccc5cn[nH]c45)c3C#N)C2)C1 [Compound I-82, 4-(2-acryloyl-2,6-diazaspiro[3.4]octan-6-yl)-6-(6-methyl-1H-indazol-7-yl)-2-(((S)-1-methylpyrrolidin-2-yl)methoxy)pyrimidine-5-carbonitrile] | + (+ indicates binding activity greater than 0% and up to 50%) |
| C=CC(=O)N1CC2(CCN(c3nc(N4CCC[C@@H]4CO)nc(-c4c(C)ccc5[nH]ncc45)c3C#N)C2)C1 [Compound I-209, 4-(2-acryloyl-2,6-diazaspiro[3.4]octan-6-yl)-2-((R)-2-(hydroxymethyl)pyrro-lidin-1-yl)-6-(5-methyl-1H-indazol-4-yl)pyrimidine-5-carbonitrile] | ++ (++ indicates binding activity from 50 to 85%) |
| C=CC(=O)N1CC2(CCN(c3ncnc(-c4c(C)ccc5cn[nH]c45)c3C#N)C2)C1 [Compound I-227, 4-(2-acryloyl-2,6-diazaspiro[3.4]octan-6-yl)-6-(6-methyl-1H-indazol-7-yl)pyrimidine-5-carbonitrile] | + (+ indicates binding activity greater than 0% and up to 50%) |
| C=CC(=O)N1CC2(CCN(c3ncnc(-c4c(C)ccc5[nH]nc(C6CC6)c45)c3C#N)C2)C1 [Compound I-238, 4-(2-acryloyl-2,6-diazaspiro[3.4]octan-6-yl)-6-(3-cyclopropyl-5-methyl-1H-indazol-4-yl)pyrimidine-5-carbonitrile] | + (+ indicates binding activity greater than 0% and up to 50%) |
| C=CC(=O)N1CC2(CCN(c3ncnc(-c4c(C)ccc5[nH]ncc45)c3CN(C)C)C2)C1 [Compound I-258, 1-(6-(5-((dimethylamino)meth-yl)-6-(5-methyl-1H-indazol-4-yl)pyrimidin-4-yl)-2,6-diazaspiro[3.4]octan-2-yl)prop-2-en-1-one] | + (+ indicates binding activity greater than 0% and up to 50%) |
| C=CC(=O)N1CC2(CCN(c3nc(OCc4cccc(OC)c4)nc(-c4c(C)ccc5[nH]ncc45)c3C#N)C2)C1 [Compound I-151, 4-(2-acryloyl-2,6-diazaspiro[3.4]octan-6-yl)-2-((3-methoxybenzyl)oxy)-6-(5-methyl-1H-indazol-4-yl)pyrimidine-5-carbonitrile] | ++ (++ indicates binding activity from 50 to 85%) |
| C=CC(=O)N1CC2(CCN(c3nc(OC[C@@H]4CCCN4C)cc(-c4c(C)ccc5[nH]ncc45)c3C#N)C2)C1 [Compound I-185, 2-(2-acryloyl-2,6-diazaspiro[3.4]octan-6-yl)-4-(5-methyl-1H-indazol-4-yl)-6-(((S)-1-methylpyrrolidin-2-yl)methoxy)nicotino-nitrile] | +++ (+++ indicates binding activity greater than 85%) |
| C=CC(=O)N1CC2(CCN(c3nc(N4CCC(N5CCN(C)[C@H](C)C5)CC4)nc(-c4c(C)ccc5cnn(C)c45)c3C#N)C2)C1 [Compound I-198, 4-(2-acryloyl-2,6-diazaspiro[3.4]octan-6-yl)-6-(1,6-dimethyl-1H-indazol-7-yl)-2-(4-((R)-3,4-dimethylpiperazin-1-yl)piperidin-1-yl)pyrimidine-5-carbonitrile] | +++ (+++ indicates binding activity greater than 85%) |
